The values below come from patent US6706880B2 (Research Triangle Institute, priority 1990, dated 2004).

The target in data set [1] is norepinephrine transporter (UniProt Q9WTR4). In words: Inhibition of [3H]nisoxetine radioligand binding at the norepinephrine transporter. The source says:
(§1) Illustrative in vitro assays for binding are described in Boja et al Ann. NY Acad. Sci. 654:282-291 (1992), which is incorporated herein by reference in its entirety. […] Alternatively, the compounds may be analyzed by their ability to inhibit reuptake of a labelled neurotransmitter in a sample, in particular, in synaptosomes.

Data set [2] addresses dopamine transporter (UniProt P23977). Type of data set: binding.
Text: as §1

The next data set concerns the target T1, serotonin transporter (Rattus norvegicus, UniProt P31652).
T1 construct: from tissue
The experiment in a line: Inhibition of [3H]paroxetine radioligand binding at the serotonin transporter.
Text: as §1

The test system of data set [3] is dopamine transporter. The data set is classed as binding. Conditions: ratio of IC50 values, Table II.
Text: as §1

The mark [4] stands for this setting: read-out: IC50 NE [3H]-nisoxetine, Table II.
The mark [5] stands for this setting: read-out: NEN IC50 for inhibition of radioligand binding, NEN=[3H] nisoxetine.
Where [6] appears, read: read-out: DA IC50 for inhibition of radioligand binding, DA=[3H]WIN 35,428.
[7] abbreviates: read-out: IC50 DA [3H]-WIN 35,428, Table II.
Setting [8] is: 5-HT IC50 for inhibition of radioligand binding, 5-HT=[3H] paroxetine.
[9] abbreviates: IC50 5-HT [3H]-paroxatine, Table II.

Where a name gives a salt, the structure may show the parent alone. Read-outs that look alike come from different tables or passages of the source. Bounds are passed on as bounds.

T1 sequence (P31652 whole entry): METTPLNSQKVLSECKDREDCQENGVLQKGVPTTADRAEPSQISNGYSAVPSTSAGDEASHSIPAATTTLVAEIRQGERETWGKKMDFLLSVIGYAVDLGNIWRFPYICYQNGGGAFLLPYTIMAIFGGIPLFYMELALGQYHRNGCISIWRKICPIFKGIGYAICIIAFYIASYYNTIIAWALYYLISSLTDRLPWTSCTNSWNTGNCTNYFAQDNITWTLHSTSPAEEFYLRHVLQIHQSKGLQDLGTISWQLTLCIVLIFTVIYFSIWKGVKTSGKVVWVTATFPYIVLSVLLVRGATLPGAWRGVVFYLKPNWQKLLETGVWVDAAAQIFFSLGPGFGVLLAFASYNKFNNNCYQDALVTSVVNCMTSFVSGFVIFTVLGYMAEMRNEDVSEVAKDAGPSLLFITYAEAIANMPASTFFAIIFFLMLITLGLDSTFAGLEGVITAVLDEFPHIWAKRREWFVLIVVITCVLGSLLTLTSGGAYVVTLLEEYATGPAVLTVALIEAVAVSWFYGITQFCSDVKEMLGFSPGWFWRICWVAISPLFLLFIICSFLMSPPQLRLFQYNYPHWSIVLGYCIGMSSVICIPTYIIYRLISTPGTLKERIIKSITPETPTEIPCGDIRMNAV

For orientation: melting point means the temperature, or range, at which the solid turns liquid. Consider `Cc1ccc([C@H]2C[C@@H]3CC[C@H]([C@H]2c2nn[nH]n2)N3C)cc1` (as salt: hydrochloride) [RTI-157, 3β-(4-Methylphenyl)-tropane-2β-tetrazole Hydrochloride], for which the melting point is < 212 °C (dec.).

In the case of `Cc1cc([C@H]2[C@@H](c3ccc(Cl)cc3)C[C@@H]3CC[C@H]2N3C)on1` (as salt: hydrochloride) [RTI-165, 3β-(4-Chlorophenyl)-2β-(3-methylisoxazol-5-yl)tropane Hydrochloride], the melting point is 235 °C (dec.).

`CN1[C@H]2CC[C@@H]1[C@@H](c1cc(-c3ccccc3)no1)[C@@H](c1ccc(Cl)cc1)C2` (as salt: hydrochloride) [RTI-4229-177, 3β-(4-Chlorophenyl)-2β-(3-phenylisoxazol-5-yl)tropane Hydrochloride] had a melting point of 287 °C.

Consider `CN1C2CCC1C(c1nnc(-c3ccccc3)s1)C(c1ccc(Cl)cc1)C2` (stereo not drawn) (as salt: hydrochloride) [RTI-4229-200, 3β-(4-Chlorophenyl)-2β-(S-phenyl-1,3,4-thiadiazol-2-yl)-tropane Hydrochloride], for which the melting point lay within 165 to 170 °C.

Usually IC50 stands for the point on the concentration scale where inhibition reaches its midpoint. `CN1[C@H]2CC[C@@H]1[C@@H](C#N)[C@@H](c1ccc(Cl)cc1)C2` [RTI-161, 3β-(4-Chlorophenyl)-tropane-2β-nitrile]: the melting point was > 220 °C (dec.). Moreover, the IC50 in data set [1] (read-out: IC50 NE [3H]-nisoxetine, Table IV) turned out to be 2.52 ± 0.253 µM. The 50% inhibitory concentration (IC50) on dopamine transporter [2] (read-out: IC50 DA [3H]-WIN 35,428, Table IV) was 0.0131 ± 0.00078 µM. On serotonin transporter (IC50 5-HT [3H]-paroxetine, Table IV), this compound came in with a 50% inhibitory concentration (IC50) of 1.89 ± 0.134 µM.

As for `CN1C2CCC1C(c1nnc(-c3ccccc3)s1)C(c1ccc(Cl)cc1)C2` (stereo not drawn) [RTI-4229-200, 3β-(4-Chlorophenyl)-2β-(S-phenyl-1,3,4-thiadiazol-2-yl)-tropane Hydrochloride], the concentration for half-maximal inhibition (IC50) in data set [1] (setting [4]) amounted to 4.14 ± 0.466 µM; in data set [1] (setting [5]), 4.14 µM; at dopamine transporter [2] (setting [6]) it was 0.0153 µM; on dopamine transporter [2] (setting [7]), 0.0153 ± 0.00243 µM; at serotonin transporter (setting [8]), 18.4 µM; on serotonin transporter (setting [9]) it was 18.4 µM. Also, the “5-HT/DA Ratio” value with dopamine transporter [3] worked out at 1203. In addition, the “NE/DA Ratio” value in the data set on dopamine transporter [3] was 271.

For the compound `CN1[C@H]2CC[C@@H]1[C@@H](c1nc3ccccc3s1)[C@@H](c1ccc(Cl)cc1)C2` [RTI-4229-202, 3β-(4-Chlorophenyl)-2β-(benzothiazol-2-yl)-tropane Hydrochloride], the IC50 worked out at 0.403 ± 0.03 µM in data set [1] (setting [4]); 0.403 µM in data set [1] (setting [5]); 0.00137 µM at dopamine transporter [2] (setting [6]); 0.00137 ± 0.00014 µM on dopamine transporter [2] (setting [7]); 1.12 µM on serotonin transporter (setting [8]); 1.12 ± 0.12 µM at serotonin transporter (setting [9]). Also, in the data set on dopamine transporter [3], the “5-HT/DA Ratio” value turned out to be 817. Further, in the data set on dopamine transporter [3], the “NE/DA Ratio” value is on record as 294.

For `CN1[C@H]2CC[C@@H]1[C@@H](c1ncc(-c3ccccc3)s1)[C@@H](c1ccc(Cl)cc1)C2` [RTI-4229-219, 3β-(4-Chlorophenyl)-2β-(5-phenylthiazol-2-yl)-tropane Hydrochloride], the half-maximal inhibitory concentration (IC50) is 8.56 µM in data set [1] (setting [5]), 0.00571 µM at dopamine transporter [2] (setting [6]), 10.3 µM at serotonin transporter (setting [8]) and 10.3 µM on serotonin transporter (setting [9]). In addition, the “5-HT/DA Ratio” value with dopamine transporter [3] is on record as 1811.
